Holding throughout (type): cell-based
The test system of experiment [1] is TNBC cells (Hs578T, MDA-MB157, MDA-MB468). In words: MTT assay for viability of TNBC cells transfected with BIKDD and treated with IRE1α inhibitor. Conditions: combined with BIKDD. The method, then: FIG. 7. […] (a, c) MTT assay for the viability of indicated TNBC cells transfected with […] CMV-BIKDD (a) or VISA-BIKDD (c) and treated with 10 or 100 μM STF-083010 for 48 h. CI values are indicated. (b) Western blot analysis of cleaved PARP in indicated TNBC cells transfected with CMV-BIKDD and treated with 100 μM STF-083010 for 36 h. […] Tumor volume were measured at indicated days and plotted. Data are mean±s.d., *P<0.05; ***P<0.001 by two-way ANOVA with Turkey's post test, n=5. Tumors were surgically removed at day 49 and their sizes are shown on the right. (e) Mice orthotopically implanted with Hs578T cells and treated with VISA-BIKDD lipid nanoparticle together with STF-083010 or DMSO starting at day 28 after tumor cell implantation (see Materials and Methods). Tumor volume were measured at indicated days and plotted. Data are mean±s.d., ***P<0.001 by two-way ANOVA with Turkey's post test, n=5. Tumors were surgically removed at day 66 and their sizes are shown on the right.
MDA-MB157 and MDA-MB 468 cells were seeded at a density of 5×10^3 cells and Hs578T cells were at 2×10^3 cells in 96-well plates. Cells were transfected with BIKDD. In the next day, cells were treated with IRE1α inhibitor or DMSO for 48 h and then with 0.4 mg/ml methylthiazolyldiphenyltetrazolium bromide (MTT) (Sigma) for 2 h. Cells were dissolved in DMSO, followed by absorbance measurement at 590 nm. The combination index (CI) was calculated using the equation: CI=CA/IC50A+CB/IC50B. CA and CB represent the concentrations of the two agents for combined treatment. IC50A and IC50B are the IC50 values for each single treatment, which were determined by treating cells with various dosages of each agent followed by MTT assay. (CI<1) indicates a synergistic effect, (CI>1) corresponds to an antagonistic effect, and (CI=1) represents an additive effect.

Experiment [2] concerns ASB11 mRNA. In words: RT-qPCR analysis of ASB11 mRNA expression in HCT116 cells treated with genotoxic agents. Conditions: p53-proficient HCT116 cells, 24 h; FIG. 5a. As to the method:
(§1) FIG. 5. […] (a) RT-qPCR analysis of ASB11 mRNA expression in indicated HCT116 cells treated with indicated dosages of doxorubicin or 5-FU for 24 h. […] (b) Western blot analysis of BIK and ASB11 expression in indicated HCT116 cells treated as in (a). (c) HCT116 p53^+/+ cells stably expressing control or ASB11 shRNA were treated with 10 μM 5-FU for 24 h and then with cycloheximide for indicated time points. Cells were lysed for Western blot analysis of BIK expression and the relative amounts of BIK are indicated on the bottom. The expression levels of ASB11 and BIK in the stable lines are shown on the bottom panel. (d) Western blot analysis of IRE1α expression and RT-qPCR analysis of XBP1 mRNA splicing in indicated HCT116 cells treated with 3 μg/ml doxorubicin or 10 μM 5-FU for 24 h. (e) RT-qPCR analysis of ASB11 and XBPls mRNA expression in HCT116 cells transfected with XBP1s and/or treated with 3 μg/ml doxorubicin for 16 h. […] (f) Analysis of BIK ubiquitination in HCT116 cells transfected with indicated constructs and/or treated with 3 μg/ml doxorubicin for 16 h. Total mRNA was extracted from cells using TRIZOL reagent (Invitrogen), and equal amounts of RNA were reverse transcribed to cDNA using the iScript™ cDNA Synthesis Kit (Bio-Rad). Quantitative real-time PCR was performed using the Power SYBR Green PCR Master kit (Applied Biosystems). […]

In experiment [3] the test system is XBP1 mRNA splicing. The experiment is described as follows: RT-qPCR analysis of XBP1 mRNA splicing in HCT116 cells. Conditions: 3 μg/ml doxorubicin or 10 μM 5-FU, 24 h, p53-dependent manner, FIG. 5d. As to the method: as §1
The subject of experiment [4] is BIK. The experiment is described as follows: Western blot analysis of BIK expression in HCT116 cells. To be noted: p53-dependent manner, FIG. 5b. The method, then:
(§2) FIG. 5. […] (a) RT-qPCR analysis of ASB11 mRNA expression in indicated HCT116 cells treated with indicated dosages of doxorubicin or 5-FU for 24 h. […] (b) Western blot analysis of BIK and ASB11 expression in indicated HCT116 cells treated as in (a). (c) HCT116 p53^+/+ cells stably expressing control or ASB11 shRNA were treated with 10 μM 5-FU for 24 h and then with cycloheximide for indicated time points. Cells were lysed for Western blot analysis of BIK expression and the relative amounts of BIK are indicated on the bottom. The expression levels of ASB11 and BIK in the stable lines are shown on the bottom panel. (d) Western blot analysis of IRE1α expression and RT-qPCR analysis of XBP1 mRNA splicing in indicated HCT116 cells treated with 3 μg/ml doxorubicin or 10 μM 5-FU for 24 h. (e) RT-qPCR analysis of ASB11 and XBPls mRNA expression in HCT116 cells transfected with XBP1s and/or treated with 3 μg/ml doxorubicin for 16 h. […]
(§3) Cell extraction was performed with RIPA lysis buffer containing 50 mM Tris (pH 8.0), 0.15 M NaCl, 1% NP40, 1% sodium deoxycholate, 0.1% SDS, 1 mM PMSF, 1 µg/ml aprotinin, and 1 µg/ml leupeptin. […] Immunoprecipitation was performed and analyzed as previously described. […] The beads were washed with RIPA lysis buffer and the bound proteins were analyzed by Western blot.

Experiment [5] relates to IRE1α. The experiment is described as follows: Western blot analysis of IRE1α expression in HCT116 cells. Conditions: 3 μg/ml doxorubicin or 10 μM 5-FU, 24 h, p53-dependent manner, FIG. 5d. The method, then: as §2, §3
The test system of experiment [6] is ASB11. In words: Western blot analysis of ASB11 expression in HCT116 cells. To be noted: p53-dependent manner, FIG. 5b. The method, then:
as §2, §3

Experiment [7] concerns BIK. The experiment is described as follows: Cycloheximide-chase analysis of BIK protein stability in HCT116 p53+/+ cells. To be noted: p53-proficient HCT116 cells, 10 μM 5-FU 24 h then cycloheximide; FIG. 5c. As to the method:
FIG. 5. […] (a) RT-qPCR analysis of ASB11 mRNA expression in indicated HCT116 cells treated with indicated dosages of doxorubicin or 5-FU for 24 h. […] (b) Western blot analysis of BIK and ASB11 expression in indicated HCT116 cells treated as in (a). (c) HCT116 p53^+/+ cells stably expressing control or ASB11 shRNA were treated with 10 μM 5-FU for 24 h and then with cycloheximide for indicated time points. Cells were lysed for Western blot analysis of BIK expression and the relative amounts of BIK are indicated on the bottom. The expression levels of ASB11 and BIK in the stable lines are shown on the bottom panel. (d) Western blot analysis of IRE1α expression and RT-qPCR analysis of XBP1 mRNA splicing in indicated HCT116 cells treated with 3 μg/ml doxorubicin or 10 μM 5-FU for 24 h. (e) RT-qPCR analysis of ASB11 and XBPls mRNA expression in HCT116 cells transfected with XBP1s and/or treated with 3 μg/ml doxorubicin for 16 h. […] (f) Analysis of BIK ubiquitination in HCT116 cells transfected with indicated constructs and/or treated with 3 μg/ml doxorubicin for 16 h.

The subject of experiment [8] is BIK. The experiment is described as follows: Western blot analysis of BIK levels in 293T cells. As to the method:
FIG. 2. […] (d) Western blot analysis of BIK levels in indicated cells stably expressing control or ASB11 shRNAs.
Cell extraction was performed with RIPA lysis buffer containing 50 mM Tris (pH 8.0), 0.15 M NaCl, 1% NP40, 1% sodium deoxycholate, 0.1% SDS, 1 mM PMSF, 1 µg/ml aprotinin, and 1 µg/ml leupeptin. Western blot was performed with the standard protocol. For an efficient detection of BIK by Western blot, Tricine-SDS-PAGE was used. Western blot analyses of other proteins were performed with Glycine-SDS-PAGE. Immunoprecipitation was performed and analyzed as previously described. Briefly, cell lysates were incubated with primary antibody for overnight. The Pure Proteome Protein A/G Magnetic Beads (LSKMAGA/G10, EMD Millipore) were then added into cell lysates and incubated for 1.5 h. The beads were washed with RIPA lysis buffer and the bound proteins were analyzed by Western blot.

The test system of experiment [9] is ASB11 mRNA. In words: RT-qPCR analysis of ASB11 mRNA in H1299 cells treated with doxorubicin. To be noted: p53-transfected H1299 cells. As to the method:
Total mRNA was extracted from cells using TRIZOL reagent (Invitrogen), and equal amounts of RNA were reverse transcribed to cDNA using the iScript™ cDNA Synthesis Kit (Bio-Rad). Quantitative real-time PCR was performed using the Power SYBR Green PCR Master kit (Applied Biosystems). Amplification was performed on an ABI 7500 Fast Real-Time PCR system and GAPDH was used as an internal control.

Experiment [10] has as its system ASB11. The experiment is described as follows: Western blot analysis of ASB11 protein expression under ER stress. To be noted: multiple cell lines; 10 μg/ml tunicamycin or 200 nM thapsigargin, 16 h; FIG. 4a. As to the method: FIG. 4. ER stress stimulates BIK ubiquitination and degradation through ASB11 and p97. (a) Western blot analysis of BIK and ASB11 levels in 293T cells treated with 10 μg/ml tunicamycin or 200 nM of thapsigargin for 16 h. (b) Western blot analysis of BIK levels in 293T cells treated with 10 μg/ml tunicamycin for 12 h and then with 50 μg/ml cycloheximide for indicated time periods. The relative amounts of BIK are indicated on the bottom. (c, e) Analysis of endogenous (c) or exogenous (e) BIK ubiquitination in 293T cells (c) or 293T derivatives as in FIG. 2d (e) transfected with indicated constructs and treated with tunicamycin. (d) Western blot analysis of 293T derivatives as in FIG. 2d treated with 10 μg/ml tunicamycin for 16 h. (f) Western blot analysis of BIK levels in 293T derivatives co-treated with 10 μg/ml tunicamycin and MG132 for 16 h. (g) Western blot analysis of BIK expression in 293T cells co-treated with tunicamycin and 10 μM CB-5083 for 16 h. […]
as §3

Peptide text beside a SMILES is read from it. * marks the point of attachment. Cbz = O=C(OCc1ccccc1)*

Consider `Cc1cc(=O)oc2c(C=O)c(O)ccc12` [4μ8C, 7-Hydroxy-4-methyl-2-oxo-2H-1-benzopyran-8-carboxaldehyde], for which, in experiment [1], the “killing effect of BIKDD on TNBC cells on combined administration” value was “enhanced”.

Regarding `O=c1[nH]cc(F)c(=O)[nH]1` [5-FU, 5-fluorouracil], the “ASB11 mRNA level” value in [2] was “reduced”. In addition, the “XBP1 mRNA splicing” value in [3] is reported as “reduced”. For the same molecule, the BIK protein level result in [4] is “upregulated”. Besides, in [5], the IRE1a level result was “reduced”. Moreover, the ASB11 protein level entry in [6] is recorded as “downregulated”. For the same molecule, the BIK protein stability entry in [7] is recorded as “increased”.

For the molecule `Cc1cc2c(C(N)=O)cccc2n1-c1nc2c(c(NCc3ccccc3)n1)COCC2` [CB-5083], the “effect on BIK downregulation induced by ER stress or ASB11 overexpression” value in [8] (293T cells, 10 μM CB-5083, 16 h, co-treated with tunicamycin, FIG. 4g) was “abrogated”.

For the molecule `CC(C)C[C@@H](C=O)NC(=O)[C@H](CC(C)C)NC(=O)[C@H](CC(C)C)NC(=O)OCc1ccccc1` [MG132] (Cbz-Leu-Leu-Leu-aldehyde), in [8] (293T cells transfected with ASB11, FIG. 2b), the “effect on the decrease of BIK protein level caused by ASB11 overexpression” value is on record as “reversed”.

For the molecule `COc1cccc2c1C(=O)c1c(O)c3c(c(O)c1C2=O)C[C@@](O)(C(=O)CO)C[C@@H]3O[C@H]1C[C@H](N)[C@H](O)[C@H](C)O1` [doxorubicin], the “ASB11 mRNA level” value in [2] is “reduced”. Further, the “XBP1 mRNA splicing” value in experiment [3] is on record as “reduced”. In addition, in [9], the “ASB11 mRNA” value was “downregulated”. In experiment [4], the BIK protein level entry is “upregulated”. Further, the IRE1a level entry in [5] was “reduced”. Also, in [6], the ASB11 protein level result is “downregulated”.

Regarding `C/C=C(/C)C(=O)O[C@H]1C(C)=C2[C@H]([C@@H]1OC(=O)CCCCCCC)[C@@](C)(OC(C)=O)C[C@H](OC(=O)CCC)[C@@]1(O)[C@H]2OC(=O)[C@@]1(C)O` [thapsigargin], the ASB11 protein expression entry in experiment [10] was “elevated”. Besides, the BIK protein level result in [8] (multiple cell lines, 10 μg/ml tunicamycin or 200 nM thapsigargin, 16 h, FIG. 4a) is on record as “reduced”.

The values above are taken from patent US20200215153A1, “CANCER TREATMENT AND/OR PREVENTION THROUGH REGULATION OF UBIQUITINATION” (Academia Sinica, priority 2018, published 2020).
